Test results as given in patent US20020150990A1, “Hepatitis C virus peptides” (priority 1992, published 2002).
Ends that are not written are not given here.

Tested on: antibodies against HCV
Experiment: PEPSCAN analysis of overlapping octameric peptides of the HCV core protein N-terminal region with HCV-seropositive sera
Type: binding, human
Details: read at 405 nm
Description: The N-terminal 97 amino acid residues of HCV Core protein SEQ ID NO: 8 was mapped with PEPSCAN analysis. This process involved the serological analysis of sequentially overlapping peptides which spanned the region of interest, to identify epitopic domains. Ninety overlapping octameric peptides were synthesized on polypropylene pin supports according to the manufacturer's instructions (Cambridge Research Biochemicals), such that each peptide overlapped with the preceding sequence by the seven N-terminal residues, and with the subsequent peptide by the seven C-terminal residues. Serum or IgG purified from the serum of individuals confirmed to be seropositive for HCV were used to screen the peptides.
The assay procedure followed was performed basically as described in the manufacturers instruction manual. The time and temperature of the test antibody incubation differed from that prescribed, thereby decreasing the time taken for each assay.
Sera: A total of 16 sera were assayed by PEPSCAN. These consisted of 12 sera from paid U.S. Donors which were identified as being positive for antibodies against HCV in routine screening at the site of donation. The remaining four sera were from patients diagnosed as having non-A non-B hepatitis, and which were subsequently shown to contain antibodies to HCV. Sera were screened either as the crude serum fraction, or as a caprylic acid preparation. Caprylic acid purification of IgG from the sera was performed as described by Stienbuch and Audran (1969) Arch. Biochem. Biophys. 134, 279-284.
Assay: The assay format involves sequentially incubating the various pins in microwell plates containing blocking, test antibody, conjugate, and substrate solutions. The immune complex builds up on the pin with the enzyme labelled conjugate being immobilized on the bound anti-peptide antibody from the test serum. When the pin is then immersed in substrate, the enzyme brings about the colour change which is used to quantify the amount of anti-peptide antibody bound.
Blocking: Pins are immersed in 200 μl of Supercocktail (1% Ovalbumin, 1% bovine serum albumin in 0.15M phosphate buffered saline pH 7.2—0.1% Tween 20) and left to stand at room temperature for 1 hour.
Test antibody: The test antibody is diluted between 1/200 (IgG) and 1/1000 (serum) in supercocktail. The pins are then stood in this solution (175 μl/well) at 37° C. for 1 hour. After this incubation the pins are washed four times in 0.15M phosphate buffered saline pH 7.2—0.05% Tween 20, each at room temperature for 10 minutes.
Conjugate: Rabbit anti-human IgG coupled to horseradish peroxidase is diluted 1/1000 in supercocktail. The peptide bearing pins are then stood in this solution at room temperature for 1 hour. Once again the pins are then washed four times as above.
Substrate: The substrate solution is made up fresh for each assay. To 100 ml of 0.1M phosphate, 0.08M citrate buffer pH 4.0 is dissolved 50 mg of 2,2′-AZINO-bis (3-ethylbenzthiazo-linsulphonic acid (ABTS) and 0.3 μl/ml 30% hydrogen peroxide is added. The pins are immersed in the wells containing substrate solution (150 μl/well) and incubated at room temperature in the dark. Once sufficient colour has developed the reaction is stopped by removing the pins. The plates are then read immediately in a spectrophotometric plate reader at a wavelength of 405 nm. The absorbance values are then plotted against pin number. The epitopic domains are then defined as the continuous sequence of amino acids common to all positive pins in the domain i.e.

Row | Sequence | Absorbance Units for different sera (serum 65221) [Absorbance Units] | Absorbance Units for different sera (serum 65234) [Absorbance Units] | Absorbance Units for different sera (serum 65241) [Absorbance Units] | Absorbance Units for different sera (serum 65276) [Absorbance Units] | Absorbance Units for different sera (serum L) [Absorbance Units]
1 | GVYLLPRR (also: pin support) [Gly-Val-Tyr-Leu-Leu-Pro-Arg-Arg, overlapping octameric peptide of HCV core protein on pin support] | 613 | 229 | 511 | 350 | 378
2 | GGQIVGGV (pin support) [overlapping octameric peptide of HCV core protein on pin support] | 323 | 179 | 122 | 119 | 119
3 | VGGVYLLP (pin support) [overlapping octameric peptide of HCV core protein on pin support] | 83 | 235 | 144 | 132 | 169
4 | YLLPRRGP (pin support) [Tyr-Leu-Leu-Pro-Arg-Arg-Gly-Pro, overlapping octameric peptide of HCV core protein on pin support] | 332 | 177 | 367 | 248 | 242
5 | LLPRRGPR (pin support) [overlapping octameric peptide of HCV core protein on pin support] | 142 | 101 | 129 | 98 | 133
6 | GPRLGVRA (pin support) [overlapping octameric peptide of HCV core protein on pin support] | 111 | 75 | 60 | 146 | 101
7 | RGPRLGVR (pin support) [overlapping octameric peptide of HCV core protein on pin support] | 168 | 99 | 94 | 167 | 132
8 | PRRGPPLG [overlapping octameric peptide of HCV core protein on pin support] | 85 | 109 | 73 | 129 | 110
9 | PRLGVRAT (pin support) [overlapping octameric peptide of HCV core protein on pin support] | 166 | 88 | 79 | 155 | 115
10 | LPRRGPRL (pin support) [overlapping octameric peptide of HCV core protein on pin support] | 97 | 145 | 94 | 139 | 148
11 | VYLLPRRG (pin support) [Val-Tyr-Leu-Leu-Pro-Arg-Arg-Gly, overlapping octameric peptide of HCV core protein on pin support] | 769 | 280 | 641 | 440 | 306
12 | QIVGGVYL (pin support) [overlapping octameric peptide of HCV core protein on pin support] | 329 | 152 | 125 | 165 | 161
13 | IVGGVYLL (pin support) [overlapping octameric peptide of HCV core protein on pin support] | 268 | 186 | 126 | 183 | 158
14 | GGGQIVGG (pin support) [overlapping octameric peptide of HCV core protein on pin support] | 137 | 134 | 121 | 127 | 121
15 | GQIVGGVY (pin support) [overlapping octameric peptide of HCV core protein on pin support] | 216 | 165 | 112 | 128 | 138
16 | RLGVRATR (pin support) [overlapping octameric peptide of HCV core protein on pin support] | 81 | 100 | 180 | 177 | 124
17 | GGVYLLPR (pin support) [overlapping octameric peptide of HCV core protein on pin support] | 132 | 344 | 311 | 246 | 191
18 | RRGPRLGV (pin support) [overlapping octameric peptide of HCV core protein on pin support] | 145 | 146 | 85 | 150 | 123
